Results as given in patent US12187723B2 (BRISTOL-MYERS SQUIBB COMPANY, priority 2019, dated 2025).

These compounds were tested against T1, human TLR8 (Homo sapiens, UniProt Q9NR97) (assay: TLR8 inhibition reporter assay (HEK-Blue SEAP)). Settings: HEK-Blue cells overexpressing human TLR8, R848 15.9 μM, 22 hour incubation.
T1 construct: host or cells: HEK-Blue cells
T1 sequence (Q9NR97 27-1041): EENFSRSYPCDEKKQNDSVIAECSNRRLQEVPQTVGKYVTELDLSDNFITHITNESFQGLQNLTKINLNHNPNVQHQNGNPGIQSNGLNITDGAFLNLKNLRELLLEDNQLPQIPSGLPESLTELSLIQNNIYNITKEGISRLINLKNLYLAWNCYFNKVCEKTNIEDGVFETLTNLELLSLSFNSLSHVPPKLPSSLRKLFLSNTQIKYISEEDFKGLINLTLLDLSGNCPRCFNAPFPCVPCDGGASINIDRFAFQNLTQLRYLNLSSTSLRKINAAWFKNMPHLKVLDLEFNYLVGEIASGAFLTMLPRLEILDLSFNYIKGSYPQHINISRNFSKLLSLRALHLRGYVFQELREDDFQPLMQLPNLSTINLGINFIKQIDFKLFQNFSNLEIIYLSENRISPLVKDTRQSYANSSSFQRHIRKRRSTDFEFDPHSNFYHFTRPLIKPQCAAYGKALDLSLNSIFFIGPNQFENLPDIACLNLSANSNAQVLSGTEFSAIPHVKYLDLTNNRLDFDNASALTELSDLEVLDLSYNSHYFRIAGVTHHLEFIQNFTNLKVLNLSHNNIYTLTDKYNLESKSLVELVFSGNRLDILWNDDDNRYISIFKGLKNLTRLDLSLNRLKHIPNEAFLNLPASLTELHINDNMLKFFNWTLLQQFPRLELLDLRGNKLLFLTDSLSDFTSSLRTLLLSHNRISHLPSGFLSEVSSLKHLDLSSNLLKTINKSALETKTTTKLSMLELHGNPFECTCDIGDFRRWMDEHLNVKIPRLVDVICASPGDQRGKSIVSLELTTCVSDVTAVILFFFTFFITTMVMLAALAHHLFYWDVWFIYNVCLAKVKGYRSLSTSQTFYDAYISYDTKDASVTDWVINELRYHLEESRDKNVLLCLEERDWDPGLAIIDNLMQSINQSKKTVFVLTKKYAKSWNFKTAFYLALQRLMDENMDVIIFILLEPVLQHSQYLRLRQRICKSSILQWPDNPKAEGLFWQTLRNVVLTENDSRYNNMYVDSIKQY
Format: cell-based
Outline: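 Agonists used: gardiquimod 7.5 μM (TLR7), R848 15.9 μM (TLR8), ODN2006 5 nM (TLR9), added after 30 min room-temperature compound pre-treatment (0.05 nM–50 μM) of receptor-overexpressing HEK-Blue cells. SEAP reporter (NF-κB/AP-1 driven) read after 22 h at 37 °C; inhibition scaled between agonist+DMSO and reference-inhibitor wells.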

Row | IC50 [nM] | Compound
1 | 9.69 | COc1cc(-c2cc3[nH]c(=O)n([C@H]4CC[C@@H](N(C)C(C)C)CC4)c3cc2C)cn2ncnc12 [Example 84, 1-((1s,4s)-4-(isopropyl(methyl)amino)cyclohexyl)-5-(8-methoxy-[1,2,4]triazolo[1,5-a]pyridin-6-yl)-6-methyl-1,3-dihydro-2H-benzo[d]imidazol-2-one]
2 | 7.14 | COc1cc(-c2cc3[nH]c(=O)n([C@H]4CC[C@@H](N(C)C5CCOCC5)CC4)c3cc2C)cn2ncnc12 [Example 85, 5-(8-methoxy-[1,2,4]triazolo[1,5-a]pyridin-6-yl)-6-methyl-1-((1s,4s)-4-(methyl(tetrahydro-2H-pyran-4-yl)amino)cyclohexyl)-1,3-dihydro-2H-benzo[d]imidazol-2-one]
3 | 359 | COc1cc(-c2cc3[nH]c(=O)n(C4CCN(CC(=O)N(C)C)CC4)c3cc2C)cn2ncnc12 [Example 86, 2-(4-(5-(8-methoxy-[1,2,4]triazolo[1,5-a]pyridin-6-yl)-6-methyl-2-oxo-2,3-dihydro-1H-benzo[d]imidazol-1-yl)piperidin-1-yl)-N,N-dimethylacetamide]
4 | 377 | CNC(=O)CN1CCC(n2c(=O)[nH]c3cc(-c4cc(OC)c5ncnn5c4)c(C)cc32)CC1 [Example 87, 2-(4-(5-(8-methoxy-[1,2,4]triazolo[1,5-a]pyridin-6-yl)-6-methyl-2-oxo-2,3-dihydro-1H-benzo[d]imidazol-1-yl)piperidin-1-yl)-N-methylacetamide]
5 | 115 | CNC(=O)CN1CCC(n2c(=O)[nH]c3cc(-c4cc(C)c5ncnn5c4)c(C)cc32)CC1 [Example 88, N-methyl-2-(4-(6-methyl-5-(8-methyl-[1,2,4]triazolo[1,5-a]pyridin-6-yl)-2-oxo-2,3-dihydro-1H-benzo[d]imidazol-1-yl)piperidin-1-yl)acetamide]
6 | 105 | Cc1cc2c(cc1-c1cc(C)c3ncnn3c1)[nH]c(=O)n2C1CCN(CC(=O)N(C)C)CC1 [Example 89, N,N-dimethyl-2-(4-(6-methyl-5-(8-methyl-[1,2,4]triazolo[1,5-a]pyridin-6-yl)-2-oxo-2,3-dihydro-1H-benzo[d]imidazol-1-yl)piperidin-1-yl)acetamide]
7 | > 3130 | Cc1cc(-c2ccc3c(c2)[nH]c(=O)n3C2CCN(CC(=O)N(C)C)CC2)cn2ncnc12 [Example 90, N,N-dimethyl-2-(4-(5-(8-methyl-[1,2,4]triazolo[1,5-a]pyridin-6-yl)-2-oxo-2,3-dihydro-1H-benzo[d]imidazol-1-yl)piperidin-1-yl)acetamide]
8 | > 3130 | Cc1cc2c(cc1-c1cc(C)c3ncnn3c1)[nH]c(=O)n2C1CCN(CC(=O)N(C)C)CC1 [Example 91, N,N-dimethyl-2-(4-(6-methyl-5-(8-methyl-[1,2,4]triazolo[1,5-a]pyridin-6-yl)-2-oxo-2,3-dihydro-1H-benzo[d]imidazol-1-yl)piperidin-1-yl)acetamide]
9 | 177 | Cc1cc2c(cc1-c1cc(C)c3ncnn3c1)[nH]c(=O)n2[C@H]1CCCN(CC(N)=O)C1 [Example 92, (S)-2-(3-(6-methyl-5-(8-methyl-[1,2,4]triazolo[1,5-a]pyridin-6-yl)-2-oxo-2,3-dihydro-1H-benzo[d]imidazol-1-yl)piperidin-1-yl)acetamide]
10 | 105 | Cc1cc2c(cc1-c1cc(C)c3ncnn3c1)[nH]c(=O)n2[C@H]1CCCN(CC(=O)N(C)C)C1 [Example 93, (S)—N,N-dimethyl-2-(3-(6-methyl-5-(8-methyl-[1,2,4]triazolo[1,5-a]pyridin-6-yl)-2-oxo-2,3-dihydro-1H-benzo[d]imidazol-1-yl)piperidin-1-yl)acetamide]

Row | Compound | IC50 [nM]
11 | COc1cc(-c2ccc3c(c2)[nH]c(=O)n3C2CCN(CC3CC3)CC2)cn2ncnc12 [Example 79, 1-(1-(cyclopropylmethyl)piperidin-4-yl)-5-(8-methoxy-[1,2,4]triazolo[1,5-a]pyridin-6-yl)-1,3-dihydro-2H-benzo[d]imidazol-2-one] | 1550
12 | COc1cc(-c2ccc3c(c2)[nH]c(=O)n3C2CCN(C3COC3)CC2)cn2ncnc12 [Example 80, 5-(8-methoxy-[1,2,4]triazolo[1,5-a]pyridin-6-yl)-1-(1-(oxetan-3-yl)piperidin-4-yl)-1,3-dihydro-2H-benzo[d]imidazol-2-one] | > 3130
13 | COc1cc(-c2ccc3c(c2)[nH]c(=O)n3C2CCN(C3CCOC3)CC2)cn2ncnc12 (stereo not drawn) [Example 81, 5-(8-methoxy-[1,2,4]triazolo[1,5-a]pyridin-6-yl)-1-(1-(tetrahydrofuran-3-yl)piperidin-4-yl)-1,3-dihydro-2H-benzo[d]imidazol-2-one] | > 3130
14 | COc1cc(-c2ccc3c(c2)[nH]c(=O)n3C2CCN(CC3CCOC3)CC2)cn2ncnc12 (stereo not drawn) [Example 82, 5-(8-methoxy-[1,2,4]triazolo[1,5-a]pyridin-6-yl)-1-(1-((tetrahydrofuran-3-yl)methyl)piperidin-4-yl)-1,3-dihydro-2H-benzo[d]imidazol-2-one] | 2600
15 | COc1cc(-c2ccc3c(c2)[nH]c(=O)n3C2CCN(C3CCC3)CC2)cn2ncnc12 [Example 83, 1-(1-cyclobutylpiperidin-4-yl)-5-(8-methoxy-[1,2,4]triazolo[1,5-a]pyridin-6-yl)-1,3-dihydro-2H-benzo[d]imidazol-2-one] | 1260
